Measured values from patent publication US20070134355A1, “Use of plant parts of prickly pear (opuntia) and/or extracts therefrom for the treatment of depressions” (priority 2003, published 2007).
Where “and” joins values, the source holds several entries; their conditions need not be identical. Equal values may be shown once.

Tested on: rats
Test: forced swimming test in rats
Type: in vivo, rat
Settings: percentage of inhibition against the control group
Procedure: The antidepressive efficacy has been tested by means of the so-called “forced swimming test” in rats. In this test rats are brought into an impasse during a defined period of five minutes (glass cylinder filled with water). In this test the rats reacted with a rigour referred to as immobilization time, which is interpreted to correlate with a depression. If the rats are treated with an antidepressively effective medicament prior to the test, the immobilization time decreases. Since other psychopharamaca such as anxiolytics or neuroleptics are not efficacious in this test, this test system is well suitable to detect antidepressive effects (R. D. Porsolt et al., Eur. J. Pharmacol. 47, 379-391 (1978); R. D. Porsolt et al., Adv. Pharmacol. Sci., 137-159 (1991)). In order to be efficacious, each of the heretofore known antidepressive agents has to be administered over a period of several days in this test, like in the case of patients. The test animals were treated either with the test substance or with a solvent only for control purposes or with the tricyclic antidepressive agent Imipramine in order to compare the efficacy. Imipramine was selected as the standard comparative substance, because it is one of the strongest antidepressive agents both in psychiatric practice and in animal model.
Tables 1 to 3 exemplarily show the efficacy of three different Opuntia extracts compared to the tricyclic antidepressive agent Imipramine as determined after a treatment period of 9 days. […] In this case, the inhibition was determined already after a treatment period of 3 days. For comparison purposes, the inhibition of the immobility was represented as the percentage of inhibition against the control group in each of the tables.

Row | SMILES | Inhibition of immobility (dose 20 mg/kg, treatment period of 9 days) [%] | Inhibition of immobility (dose 30 mg/kg, treatment period of 9 days, 30 mg/kg) | Inhibition of immobility (dose 100 mg/kg, treatment period of 3 days) [%]
1 | CN(C)CCCN1c2ccccc2CCc2ccccc21 [Imipramine] | 44 | 64% and 68% | –
2 | COc1ccc(C(CN(C)C)C2(O)CCCCC2)cc1 (stereo not drawn) [Venlafaxine] | – | – | 25
